{"source": "patent US7371763B2", "about": "“Inhibition of raf kinase using quinolyl, isoquinolyl or pyridyl ureas” (Bayer Pharmaceuticals Corporation, priority 2001, dated 2008)", "data": [{"compound": "CC(C)(C)c1ccnc(NC(=O)Nc2ccc(Oc3ccc(Cl)cc3)cc2)c1", "note": "[Entry 8, N-(4-tert-Butylpyridyl)-N′-(4-(4-chlorophenoxy)phenyl) urea]", "values": [{"measurement": "melting point", "result": "198 to 199", "unit": "°C"}]}]}
